According to US12612389B2, “Benzofuran-based N-acylhydrazone derivative and pharmaceutical composition comprising same” (KOREA RESEARCH INSTITUTE OF BIOSCIENCE AND BIOTECHNOLOGY, priority 2019, dated 2026):

How the values were obtained:
HeLa CCL2 cells = experiment: Wound healing assay; format: cell-based, human; details: up to 100 nM, FIGS. 6A and 6B
Procedure: HeLa CCL2 cells were cultured in 6 wells at 100%, wounded with a yellow tip, and treated with 50 nM and 100 nM of the compound of Example 4. In order to observe the effect of the drug, the degree of cell migration was compared and observed by recording the state of the cells before treatment as images, and comparing the cell state before drug treatment with the state of the cells at 24, 36, and 48 hours post the drug treatment. The concentration of the compound of Example 4 treated with the cells was determined by performing MTT assay.

MEF (mouse) = experiment: Cytotoxicity in normal cells (MTT); format: cell-based; details: 96 h, Normal cell, 4 days
MCF7/ADR = experiment: Anti-proliferative activity test in cancer cells exhibiting multidrug resistance (MTT); format: cell-based
Procedure: (§1) HeLa cells (American Type Culture Collection: ATCC, USA), a human cervical cancer cell line, were seeded in a 96-well plate at 3×10^3 cells/well, and the cells were then treated with compounds of Examples or Comparative Example according to the present invention and grown for 2 days. Then, MTT (3-(4,5-dimethylthiazol-2-yl)-2,5-diphenyltetrazolium bromide) reagent was added at 10 μL/well. […] The data shown in Table below are mean values of results obtained by repeating the analysis twice. Specifically, K562 and MCF7 (Bio Evaluation Center, Korea Research Institute of Bioscience and Biotechnology, Korea) and multidrug-resistant cell lines of each of these cell lines, i.e., K562/ADR and MCF7/ADR (Bio Evaluation Center, Korea Research Institute of Bioscience and Biotechnology, Korea), were cultured on microtiter plates (1-3×10^3 cells/well). […] The data shown in Table below are mean values of results obtained by repeating the analysis three times.

K562/ADR = experiment: as above; format: cell-based
Procedure: as §1

[1] = Solubility of the compound in the toxicity-test solvent; format: physicochemical; details: N′,N′-dimethylacetamide/Kolliphor/2-hydroxypropyl-β-cyclodextrin (10% in distilled water)=40:10:50; thicker solutions precipitated
Procedure: (§2) 100 mg/kg of the compound of Example 4 was dissolved in a solvent (N′,N′-dimethylacetamide/Kolliphor/2-hydroxypropyl-β-cyclodextrin (10% concentration of distilled water solution)=40:10:50). When the concentration became thicker than that, the reaction solution immediately precipitated. The solution in which the compound of Example 4 was dissolved from 12.5 mg/kg to 100 mg/kg was injected into the peritoneal cavity of mice 10 times […] in a volume of 100 μL (see FIG. 8A). All animals survived to the final day, and no particular problems were seen by visual observation (see Table 13 and FIG. 8A).

Colo 205 = experiment: Anti-proliferative activity in other cancer cell lines (MTT); format: cell-based; details: Homo sapiens, 96 h, Colon, 4 days
Procedure: (§3) HeLa cells (American Type Culture Collection: ATCC, USA), a human cervical cancer cell line, were seeded in a 96-well plate at 3×10^3 cells/well, and the cells were then treated with compounds of Examples or Comparative Example according to the present invention and grown for 2 days. Then, MTT (3-(4,5-dimethylthiazol-2-yl)-2,5-diphenyltetrazolium bromide) reagent was added at 10 μL/well. After 2 hours, absorbance was measured at “OD 450” and statistical values were obtained using Prism™6 program. The data shown in Table below are mean values of results obtained by repeating the analysis twice.
(§4) Specifically, various cancer cell lines were cultured in a microtiter plate (1-3×10^3 cells/well), treated with the compound of Example 4 according to the present invention, and cultured for 4 days. Cytotoxicity was tested by MTT assay in the same manner as in Experimental Example 1-1, and IC50 was obtained by a log-dose response curve. The data shown in Table below are mean values of results obtained by repeating the analysis three times.

Hep3B = experiment: as above; format: cell-based; details: Homo sapiens, 96 h, Liver, 4 days
Procedure: as §3, §4

HeLa CCL2 = experiment: as above; format: cell-based; details: Homo sapiens, 96 h, Cervix, 4 days
Procedure: as §3, §4

NCI-H125 = experiment: as above; format: cell-based; details: Homo sapiens, 96 h, Lung, 4 days
Procedure: as §3, §4

SK-MEL 5 = experiment: as above; format: cell-based; details: Homo sapiens, 96 h, Skin, 4 days
Procedure: as §3, §4

A498 = experiment: as above; format: cell-based; details: Homo sapiens, 96 h, Kidney, 4 days
Procedure: as §3, §4

A172 = experiment: as above; format: cell-based; details: Homo sapiens, A 172, 96 h, Brain, 4 days
Procedure: as §3, §4

DU145 = experiment: as above; format: cell-based; details: Homo sapiens, DU-145, 96 h, Prostate, 4 days
Procedure: as §3, §4

A549 = experiment: as above; format: cell-based; details: Homo sapiens, 96 h, A549 (line stands under Liver), 4 days
Procedure: as §3, §4

NCI-H522 = experiment: as above; format: cell-based; details: Homo sapiens, 96 h, Lung, 4 days
Procedure: as §3, §4

NCI-H460 = experiment: as above; format: cell-based; details: Homo sapiens, 96 h, Lung, 4 days
Procedure: as §3, §4

U373MG = experiment: as above; format: cell-based; details: Homo sapiens, U373 MG, 96 h, Brain, 4 days
Procedure: as §3, §4

[2] = Mouse toxicity test (repeated intraperitoneal injection); format: in vivo, ICR mice; details: for Survival rate (%): n = 3, i.p., 10 injections
Procedure: All animal experiments and procedures were performed in accordance with ethical standards under the approval of the Institutional Animal Care and Use Committee (IACUC) of the Korea Research Institute of Bioscience and Biotechnology (KRIBB). ICR mice were supplied by Daehan Biolink Co., Ltd (Korea). All mice were housed in sterile animal isolation facilities. All in vivo experiments were performed using 6-8 week old mice.
Acute toxicity test of the compound of Example 4 was performed at the Laboratory Animal Resource Center of the Korea Research Institute of Bioscience and Biotechnology. ICR mice (6-8 weeks old) were acclimatized for up to 10 days before the experiment, and then 3 mice were injected with the drugs. The Example compound was mixed with a solvent and injected intraperitoneally, and after drug treatment, clinical symptoms were observed twice within 24 hours, and additional drug treatment was performed up to 10 times as scheduled. The mice were weighed 5 times as scheduled.
as §2

## CCOCCn1c(Cl)c(/C=N/NC(=O)c2cc3cc(C)ccc3o2)c2ccccc21 [Example 4, (E)-N′-[(2-chloro-1-(2-ethoxyethyl)-1H-indol-3-yl]methylene}-5-methylbenzofuran-2-carbohydrazide]
HeLa CCL2 cells
  effect on cell growth: did not have a significant effect on cell growth
MEF (mouse)
  IC50: 4010 ± 4580 nM
MCF7/ADR; Homo sapiens, NCI/ADR-RES, 96 h, MCF7/ADR (multidrug-resistant), 4 days, MTT
  IC50: 332 nM
MCF7/ADR; ratio IC50 MCF7/ADR to IC50 MCF7
  Resistance Factor: 0.40
K562/ADR; Homo sapiens, 96 h, K562/ADR (multidrug-resistant), 4 days, MTT
  IC50: 201 nM
K562/ADR; ratio IC50 K562/ADR to IC50 K562
  Resistance Factor: 0.57
[1]
  highest concentration dissolved without precipitation: 100 mg/kg
Colo 205
  IC50: 360 ± 490 nM
Hep3B
  IC50: 190 ± 50 nM
HeLa CCL2
  IC50: 180 ± 4 nM
NCI-H125
  IC50: 370 ± 200 nM
SK-MEL 5
  IC50: 460 ± 140 nM
A498
  IC50: 170 ± 8 nM
A172
  IC50: 790 ± 90 nM
DU145
  IC50: 490 ± 90 nM
A549
  IC50: 630 ± 120 nM
NCI-H522
  IC50: 370 ± 130 nM
NCI-H460
  IC50: 500 ± 90 nM
U373MG
  IC50: 360 ± 10 nM
[2]; 12.5 mg/kg
  Survival rate (%): 100%
[2]; 25 mg/kg
  Survival rate (%): 100%
[2]; 50 mg/kg
  Survival rate (%): 100%
[2]; 100 mg/kg
  Survival rate (%): 100%
[2]; intraperitoneally 10 times at 100 mg/kg
  toxicity on dissection (size and morphology of each organ): did not induce serious toxicity
